{"source": "patent US8835632B2", "about": "“Methods to increase the photostability of dyes” (The University of North Carolina at Chapel Hill, priority 2007, dated 2014)", "type_in_all_cases": "physicochemical", "key": {"[1]": {"assay": "Absorption and fluorescence spectra, extinction coefficient, fluorescence quantum yield", "description": "Absorption spectra were recorded on a Hewlett-Packard 8453 diode array UV-Vis spectrophotometer (Agilent Technologies, Inc., Santa Clara, Calif.), and fluorescence measurements were taken on a SPEX® Fluorolog 2 spectrofluorometer (HORIBA Jobin Yvon, Inc., Edison, N.J.). Melting points are not corrected. NMR spectra were obtained on a Varian Mercury 300 MHz (Varian, Inc., Palo Alto, Calif.) or on a Bruker 300 MHz DRX 300 spectrometer (Bruker Biospin Corp., Billerica, Mass.). Mass spectra were obtained on a Hewlett-Packard 1100 high-performance liquid chromatograph equipped with an 1100 mass selective detector (MS-ESI) (Agilent Technologies, Inc.).\nWith decreasing solvent polarity, the absorption maximum of dyes 1a-b, 2a-d shifted to longer wavelengths, and the intensity of the transition increased (Table 10, FIG. 11).\nThe SCRF/VSCRF predicted emission energies and the solute dipole moments before and after the vertical emission process are given in Table 16. The dipole moments of AI-BA(4) and AI-SO(4) are further decreased on the S1 surface after geometry relaxation (in MeOH solution), and then increased during the S1→S0 transition. This observation is consistent with the blue shifts of the emission bands of AI-BA(4) and AI-SO(4) with increasing solvent polarity from C6H6 to MeOH. By contrast, the dipole moment of I-SO further decreases after S1 state geometry relaxation, and then decreases during the vertical emission process. This observation also is in agreement with the red shift of the I-SO emission band with increasing solvent polarity from C6H6 to MeOH. Similarly to the absorption case, a negligible red shift (ΔEem=0.017 eV) was predicted for the emission band of I-TBA with increasing solvent polarity. A small red shift from C6H6 to DMF (with ΔEem=0.020 eV, or Δλmax=6 nm) is observed. The nearly equal emission energy observed in C6H6 and MeOH can again result in the explicit interactions between the solute and solvent molecules."}, "[2]": {"assay": "Photobleaching under constant illumination from a halogen tungsten lamp filtered through glass", "details": "MeOH", "description": "The photostability of dyes can be important for applications in living cells. The mechanism of photobleaching for merocyanines of varying structure has been examined See Toutchkine et al., J. Am. Chem. Soc. 125:4132-4145 (2003). The photostability of the presently disclosed dyes was characterized by exposing them to constant illumination from a halogen tungsten lamp filtered through glass. This broad spectrum light source provided essentially equal intensity throughout the spectral range where the dyes absorb and where they would be irradiated in vivo (about 600 nm to about 650 nm)."}, "[3]": {"assay": "Relative rate of reaction with chemically generated singlet oxygen in DMSO", "details": "2.5 mM, 1O2 from 1,4-dimethylnaphtalene-1,4-endoperoxide", "description": "The bleaching rates for the dyes differed by two orders of magnitude. The relative rate constants kr (rel) for product formation during reaction with singlet oxygen were measured by comparing the percent conversions for dyes dissolved in DMSO containing a fixed amount of ^1O2 (2.5 mM solutions; ^1O2 generated by decomposition of 1,4-dimethylnaphtalene-1,4-endoperoxide). The rates were generally higher for dyes with a polar ground state (1a, 2a, 2b, 2d) than for the dyes with their ground state at the “cyanine limit” (3, 4). […] Olefins without allylic hydrogens react with singlet oxygen to form dioxetanes. Dioxetanes are unstable and decompose, to form two carbonyl compounds."}}, "data": [{"smiles": "Cn1c(O)c(/C=C/C=C(\\C#N)c2cc[n+]3c(c2)C(C)(C)c2ccccc2-3)c(=O)n(C)c1=O", "note": "[AI-BA-CN]", "values": [{"measurement": "Absorbance λmax", "setting": "[1]; Butanol (BuOH)", "result": 600, "unit": "nm"}, {"measurement": "Emission λmax", "setting": "[1]; Butanol (BuOH)", "result": 620, "unit": "nm"}, {"measurement": "Extinction coefficient ε", "setting": "[1]; Butanol (BuOH)", "result": 189000}, {"measurement": "Fluorescence quantum yield Φ", "setting": "[1]; Butanol (BuOH)", "result": 0.25}, {"measurement": "Absorbance λmax", "setting": "[1]; Methanol (MeOH)", "result": 589, "unit": "nm"}, {"measurement": "Emission λmax", "setting": "[1]; Methanol (MeOH)", "result": 613, "unit": "nm"}, {"measurement": "Extinction coefficient ε", "setting": "[1]; Methanol (MeOH)", "result": 180000}, {"measurement": "Fluorescence quantum yield Φ", "setting": "[1]; Methanol (MeOH)", "result": 0.05}, {"measurement": "Absorbance λmax", "setting": "[1]; Water-Methanol (H2O—MeOH)", "result": 578, "unit": "nm"}, {"measurement": "Emission λmax", "setting": "[1]; Water-Methanol (H2O—MeOH)", "result": 607, "unit": "nm"}, {"measurement": "Extinction coefficient ε", "setting": "[1]; Water-Methanol (H2O—MeOH)", "result": 123000}, {"measurement": "Fluorescence quantum yield Φ", "setting": "[1]; Water-Methanol (H2O—MeOH)", "result": 0.15}]}, {"smiles": "Cn1c(O)c(/C=C/C=C/c2cc[n+]3c(c2)C(C)(C)c2ccccc2-3)c(=O)n(C)c1=O", "note": "[AI-BA]", "values": [{"measurement": "Absorbance λmax", "setting": "[1]; Butanol (BuOH)", "result": 615, "unit": "nm"}, {"measurement": "Emission λmax", "setting": "[1]; Butanol (BuOH)", "result": 654, "unit": "nm"}, {"measurement": "Extinction coefficient ε", "setting": "[1]; Butanol (BuOH)", "result": 154000}, {"measurement": "Fluorescence quantum yield Φ", "setting": "[1]; Butanol (BuOH)", "result": 0.29}, {"measurement": "Absorbance λmax", "setting": "[1]; Methanol (MeOH)", "result": 585, "unit": "nm"}, {"measurement": "Emission λmax", "setting": "[1]; Methanol (MeOH)", "result": 618, "unit": "nm"}, {"measurement": "Extinction coefficient ε", "setting": "[1]; Methanol (MeOH)", "result": 83000}, {"measurement": "Fluorescence quantum yield Φ", "setting": "[1]; Methanol (MeOH)", "result": 0.52}]}, {"smiles": "Cn1c([O-])c(/C=C/C=C/c2cc[n+]3c(c2)C(C)(C)c2ccccc2-3)c(=O)n(C)c1=O", "note": "[AI-BA]", "values": [{"measurement": "kph * 10^6 (absolute rate of photobleaching)", "setting": "[2]", "result": 68, "unit": "s^−1"}, {"measurement": "kph(rel) (relative rate of photobleaching)", "setting": "[2]; with respect to standard I-TBA in MeOH", "result": 200}, {"measurement": "kr(rel) (relative rate constants for product formation during reaction with singlet oxygen produced chemically)", "setting": "[3]", "result": 25.6}, {"measurement": "Absorption energy Eabs Exp", "setting": "[1]; C6H6", "result": 1.873, "unit": "eV"}, {"measurement": "Emission energy Eem Exp", "setting": "[1]; C6H6", "result": 1.851, "unit": "eV"}, {"measurement": "Absorption energy Eabs Exp", "setting": "[1]; MeOH", "result": 2.120, "unit": "eV"}, {"measurement": "Emission energy Eem Exp", "setting": "[1]; MeOH", "result": 2.006, "unit": "eV"}, {"measurement": "Observed absorption (ε)", "setting": "[1]; Table 10, BuOH", "result": "(154000)"}, {"measurement": "Observed absorption λmax", "setting": "[1]; Table 10, BuOH", "result": 615, "unit": "nm"}, {"measurement": "Observed absorption (ε)", "setting": "[1]; Table 10, C6H6", "result": "±201000)"}, {"measurement": "Observed absorption λmax", "setting": "[1]; Table 10, C6H6", "result": 662, "unit": "nm"}, {"measurement": "Observed absorption (ε)", "setting": "[1]; Table 10, CH2Cl2", "result": "(224000)"}, {"measurement": "Observed absorption λmax", "setting": "[1]; Table 10, CH2Cl2", "result": 647, "unit": "nm"}, {"measurement": "Observed absorption (ε)", "setting": "[1]; Table 10, CH3CN", "result": "(141000)"}, {"measurement": "Observed absorption λmax", "setting": "[1]; Table 10, CH3CN", "result": 621, "unit": "nm"}, {"measurement": "Observed absorption (ε)", "setting": "[1]; Table 10, DMF", "result": "(146000)"}, {"measurement": "Observed absorption λmax", "setting": "[1]; Table 10, DMF", "result": 625, "unit": "nm"}, {"measurement": "Observed absorption (ε)", "setting": "[1]; Table 10, DMSO", "result": "(122000)"}, {"measurement": "Observed absorption λmax", "setting": "[1]; Table 10, DMSO", "result": 617, "unit": "nm"}, {"measurement": "Observed absorption (ε)", "setting": "[1]; Table 10, EtOH", "result": "(104000)"}, {"measurement": "Observed absorption λmax", "setting": "[1]; Table 10, EtOH", "result": 604, "unit": "nm"}, {"measurement": "Observed absorption (ε)", "setting": "[1]; Table 10, MeOH", "result": "(83000)"}, {"measurement": "Observed absorption λmax", "setting": "[1]; Table 10, MeOH", "result": 585, "unit": "nm"}, {"measurement": "Observed absorption (ε)", "setting": "[1]; Table 10, OcOH", "result": "(143000)"}, {"measurement": "Observed absorption λmax", "setting": "[1]; Table 10, OcOH", "result": 628, "unit": "nm"}, {"measurement": "Observed absorption (ε)", "setting": "[1]; Table 10, i-PrOH", "result": "(132000)"}, {"measurement": "Observed absorption λmax", "setting": "[1]; Table 10, i-PrOH", "result": 614, "unit": "nm"}, {"measurement": "Absorption Exp wavelength", "setting": "[1]; Table 12, C6H6", "result": 662, "unit": "nm"}, {"measurement": "Absorption Exp wavelength", "setting": "[1]; Table 12, MeOH", "result": 585, "unit": "nm"}, {"measurement": "Observed emission (Φ)", "setting": "[1]; Table 15, BuOH", "result": 0.29}, {"measurement": "Observed emission λmax", "setting": "[1]; Table 15, BuOH", "result": 654, "unit": "nm"}, {"measurement": "Observed emission (Φ)", "setting": "[1]; Table 15, C6H6", "result": 0.01}, {"measurement": "Observed emission λmax", "setting": "[1]; Table 15, C6H6", "result": 670, "unit": "nm"}, {"measurement": "Observed emission (Φ)", "setting": "[1]; Table 15, CH2Cl2", "result": 0.03}, {"measurement": "Observed emission λmax", "setting": "[1]; Table 15, CH2Cl2", "result": 664, "unit": "nm"}, {"measurement": "Observed emission (Φ)", "setting": "[1]; Table 15, CH3CN", "result": 0.05}, {"measurement": "Observed emission λmax", "setting": "[1]; Table 15, CH3CN", "result": 652, "unit": "nm"}, {"measurement": "Observed emission (Φ)", "setting": "[1]; Table 15, DMF", "result": 0.26}, {"measurement": "Observed emission λmax", "setting": "[1]; Table 15, DMF", "result": 658, "unit": "nm"}, {"measurement": "Observed emission (Φ)", "setting": "[1]; Table 15, DMSO", "result": 0.23}, {"measurement": "Observed emission λmax", "setting": "[1]; Table 15, DMSO", "result": 657, "unit": "nm"}, {"measurement": "Observed emission (Φ)", "setting": "[1]; Table 15, EtOH", "result": 0.19}, {"measurement": "Observed emission λmax", "setting": "[1]; Table 15, EtOH", "result": 651, "unit": "nm"}, {"measurement": "Observed emission (Φ)", "setting": "[1]; Table 15, MeOH", "result": 0.52}, {"measurement": "Observed emission λmax", "setting": "[1]; Table 15, MeOH", "result": 618, "unit": "nm"}, {"measurement": "Observed emission (Φ)", "setting": "[1]; Table 15, OcOH", "result": 0.64}, {"measurement": "Observed emission λmax", "setting": "[1]; Table 15, OcOH", "result": 656, "unit": "nm"}, {"measurement": "Observed emission (Φ)", "setting": "[1]; Table 15, i-PrOH", "result": 0.22}, {"measurement": "Observed emission λmax", "setting": "[1]; Table 15, i-PrOH", "result": 652, "unit": "nm"}, {"measurement": "Eabs(MeOH)-Eabs(C6H6) Exp", "setting": "[1]; blue shift of absorption band C6H6 to MeOH", "result": 0.247, "unit": "eV"}]}]}
